Among the test systems are A549; CCRF-CEM; EKVX; HCC 2998; HCT-15; HT-29; K562; KM12; LOX IMVI; NCI-H23; NCI-H460; SF-268; SK-MEL-28; SK-MEL-2; SN12C; SNB-19; UACC-257; UO-31; NCI-H522; SK-MEL-5.
Holding throughout (assay): NCI anticancer screen, dose series, 48 h

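Each compound was tested at five concentrations against cells in 96-well plates for 48 hours. GI50 = concentration required for 50% inhibition of growth.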 The source made the active and inactive calls. Cut-off read from the data, not from the text of the source: active = GI50 up to about 1.1 µM and inactive = higher.

For the molecule `COc1ccc(NC(=O)CC/C(CC(=O)c2ccccc2Cl)=N\Nc2nnc(C)n2N)cc1`, the GI50 in the assay with A549 was > 100 µM (inactive); in the assay with CCRF-CEM it was > 100 µM (inactive); in the assay on EKVX, > 100 µM (inactive); in the assay on HCC 2998, > 100 µM (inactive); in the assay on HCT-15, greater than 100 µM; in the assay on HT-29 it was > 100 µM (inactive). The GI50 is 61.9 µM (inactive) with K562; > 100 µM (inactive) in the assay on KM12; > 100 µM (inactive) in the assay with LOX IMVI; > 100 µM (inactive) in the assay on NCI-H23; > 100 µM (inactive) with NCI-H460; > 100 µM (inactive) in the assay with SF-268. For the same molecule, the GI50 with SK-MEL-28, in the assay on SK-MEL-2, in the assay with SN12C, in the assay with SNB-19, in the assay on UACC-257 and with UO-31 was > 100 µM (inactive) in each case.

For `CCOC(=O)Nc1ccc(S(=O)(=O)NCCCl)cc1.CCOC(=O)Nc1ccc(S(=O)(=O)NCCCl)cc1.O=C(O)c1ccc(/N=N/Cl)cc1O`, the GI50 was > 100 µM (inactive) in the assay on A549; > 100 µM (inactive) in the assay with CCRF-CEM; > 100 µM (inactive) in the assay on EKVX; > 100 µM (inactive) with HCC 2998; greater than 100 µM in the assay with HCT-15; > 100 µM (inactive) with HT-29. Moreover, the GI50 in the assay with K562, with KM12, with NCI-H23, with NCI-H522, in the assay with SF-268 and in the assay with SK-MEL-28 was > 100 µM (inactive) each time. The GI50 with SK-MEL-2, in the assay with SK-MEL-5, in the assay with SN12C, with UACC-257 and in the assay on UO-31 was > 100 µM (inactive) in each case.

On to `CCOc1cc(/C=N\O)cc(/C=N/O)c1O`, for which the GI50 in the assay with A549 was 29.5 µM (inactive); in the assay with CCRF-CEM it was 35.3 µM (inactive); in the assay with EKVX, 33.3 µM (inactive); in the assay on HCC 2998 it was 56.5 µM (inactive); in the assay on HCT-15, 31.3 µM; in the assay on HT-29, 29.4 µM (inactive). Further, the GI50 in the assay with K562 is 61.5 µM (inactive); in the assay on KM12, 54.3 µM (inactive); in the assay with LOX IMVI, 22.2 µM (inactive); in the assay on NCI-H23 it was 30 µM (inactive); with NCI-H460 it was 31.9 µM (inactive); in the assay with SF-268 it was 22.6 µM (inactive). Besides, the GI50 in the assay with SK-MEL-28 was 22.8 µM (inactive); in the assay on SK-MEL-2, 18.1 µM (inactive); with SK-MEL-5, 17.7 µM (inactive); with SN12C it was 51.6 µM (inactive); in the assay with SNB-19, 39.2 µM (inactive); in the assay with UACC-257, 47.2 µM (inactive). For the same molecule, the GI50 in the assay on UO-31 is 1.2 µM (inactive).

Consider `c1ccc(CSC(SCc2ccccc2)c2cccc3ccccc23)cc1`, for which the GI50 with A549 is > 10 µM (inactive); with CCRF-CEM, > 10 µM (inactive); in the assay with EKVX, > 10 µM (inactive); with HCC 2998, > 10 µM (inactive); in the assay on HCT-15, greater than 10 µM; with HT-29 it was > 10 µM (inactive). Moreover, the GI50 is > 10 µM (inactive) with K562; > 10 µM (inactive) in the assay on KM12; 3.82 µM (inactive) in the assay with NCI-H23; > 10 µM (inactive) with NCI-H460; 7.87 µM (inactive) with NCI-H522; > 10 µM (inactive) in the assay on SF-268. Further, the GI50 with SK-MEL-28, in the assay with SK-MEL-2, in the assay on SK-MEL-5, in the assay with SN12C, in the assay on SNB-19 and with UO-31 was > 10 µM (inactive) throughout.

On to `COc1nc2[nH]ccc2c(=O)[nH]1`, for which the GI50 with A549, with CCRF-CEM, in the assay with EKVX, in the assay on HCC 2998, in the assay with HT-29 and with K562 was > 100 µM (inactive) in each case. The GI50 in the assay on KM12, in the assay with LOX IMVI, with NCI-H23, in the assay on NCI-H460, in the assay with SF-268 and in the assay on SK-MEL-28 was > 100 µM (inactive) throughout. In addition, the GI50 in the assay with SK-MEL-2, with SK-MEL-5, in the assay with SN12C, with SNB-19, in the assay with UACC-257 and in the assay with UO-31 was > 100 µM (inactive) throughout.

As to `CCOC(=O)CSc1c(C(=O)OCC)c(=O)n(-c2ccccc2)c(=S)n1-c1ccccc1`, the GI50 in the assay with A549 was 32.1 µM (inactive); with CCRF-CEM it was 4.92 µM (inactive); in the assay with EKVX it was 62.8 µM (inactive); with HCT-15, 21.5 µM; in the assay on HT-29, 54.3 µM (inactive); in the assay with K562, 7.53 µM (inactive). Further, the GI50 is 59.2 µM (inactive) in the assay with KM12; 15.6 µM (inactive) with LOX IMVI; 22.7 µM (inactive) with NCI-H23; 21.6 µM (inactive) with NCI-H460; > 100 µM (inactive) in the assay on NCI-H522; > 100 µM (inactive) in the assay on SF-268. Also, the GI50 in the assay on SK-MEL-28 was > 100 µM (inactive); with SK-MEL-2 it was 83 µM (inactive); in the assay with SK-MEL-5 it was 23.5 µM (inactive); in the assay on SN12C it was 29.6 µM (inactive); in the assay on SNB-19, 34.7 µM (inactive); in the assay on UACC-257 it was 29.2 µM (inactive). For the same molecule, the GI50 in the assay on UO-31 is 26.9 µM (inactive).

In the case of `CCN(CC)CCCC(C)Nc1cc(-c2ccccc2)nc2cc(OC)ccc12` (stereo not drawn), the GI50 is 1.3 µM (inactive) with CCRF-CEM; 1.15 µM (inactive) in the assay on HCC 2998; 1.94 µM (inactive) with HT-29; 0.8 µM (active) in the assay on K562; 5.33 µM (inactive) in the assay on KM12; 15.4 µM (inactive) with NCI-H23. Further, the GI50 in the assay on NCI-H460 was 2.92 µM (inactive); in the assay with NCI-H522, 6.44 µM (inactive); in the assay with SF-268, 12.8 µM (inactive); with SK-MEL-28, 6.22 µM (inactive); in the assay on SK-MEL-2 it was 12.6 µM (inactive); in the assay with SNB-19, > 10 µM (inactive). For the same molecule, the GI50 in the assay with UACC-257 was 17.4 µM (inactive); with UO-31, 2.54 µM (inactive).

On to `COc1ccc(CCCC(=O)O)c(C)c1`, for which the GI50 in the assay on A549 was 58.6 µM (inactive); in the assay with CCRF-CEM, 17.2 µM (inactive); with EKVX, > 100 µM (inactive); with HCT-15, greater than 100 µM; in the assay with HT-29, > 100 µM (inactive); in the assay on K562 it was 39.3 µM (inactive). Also, the GI50 with KM12 is 36.4 µM (inactive); in the assay with LOX IMVI, 30.1 µM (inactive); in the assay with NCI-H23, 53.3 µM (inactive); in the assay with NCI-H460, 11.7 µM (inactive); in the assay with NCI-H522 it was 36.8 µM (inactive); in the assay with SF-268, 27.4 µM (inactive). For the same molecule, the GI50 in the assay on SK-MEL-28 was 91.4 µM (inactive); in the assay with SK-MEL-2, 39 µM (inactive); in the assay with SK-MEL-5, 40.3 µM (inactive); in the assay with SN12C it was 32 µM (inactive); with SNB-19 it was 40.1 µM (inactive); in the assay with UACC-257 it was 73.5 µM (inactive). The GI50 in the assay with UO-31 is > 100 µM (inactive).

On to `N#Cc1c(-c2ccccc2)cn(C(=O)c2ccccc2)c1N`, for which the GI50 is > 100 µM (inactive) in the assay on A549; > 100 µM (inactive) in the assay with CCRF-CEM; > 100 µM (inactive) in the assay with EKVX; < 0.01 µM (active) in the assay with HCC 2998; greater than 100 µM in the assay with HCT-15; > 100 µM (inactive) in the assay with HT-29. For the same molecule, the GI50 in the assay with K562, in the assay with KM12, with LOX IMVI, with NCI-H23, in the assay on NCI-H522 and in the assay with SF-268 was > 100 µM (inactive) in each case. Besides, the GI50 in the assay with SK-MEL-28, in the assay on SK-MEL-2, with SK-MEL-5, in the assay on SN12C, in the assay with SNB-19 and in the assay on UO-31 was > 100 µM (inactive) in each case.

`COc1ccc(NCC(=O)Nn2c(-c3ccccc3)nc3ccccc3c2=O)cc1`: the GI50 is 53.7 µM (inactive) in the assay on A549; 24.2 µM (inactive) with CCRF-CEM; 69.2 µM (inactive) in the assay with EKVX; 77.6 µM (inactive) in the assay with HCC 2998; 54 µM in the assay on HCT-15; 32.4 µM (inactive) with HT-29. Further, the GI50 was 24.5 µM (inactive) with K562; 70.8 µM (inactive) in the assay with KM12; 19.6 µM (inactive) with LOX IMVI; 37.2 µM (inactive) in the assay with NCI-H23; 51.1 µM (inactive) in the assay on NCI-H460; > 10 µM (inactive) in the assay with NCI-H522. The GI50 is 36.2 µM (inactive) with SF-268; 74.5 µM (inactive) in the assay with SK-MEL-28; 14.8 µM (inactive) in the assay on SK-MEL-5; 36.6 µM (inactive) in the assay with SN12C; 50.2 µM (inactive) in the assay with SNB-19; 52.2 µM (inactive) with UACC-257. Besides, the GI50 with UO-31 is > 100 µM (inactive).

With `CC1(C)COC2C(N(Cc3ccccc3)Cc3ccccc3)C(=O)N21` (stereo not drawn), the GI50 in the assay on A549 is 32.6 µM (inactive); in the assay on CCRF-CEM it was 32.7 µM (inactive); with EKVX, 73.1 µM (inactive); in the assay on HCC 2998, 41.7 µM (inactive); in the assay with HCT-15, 39.6 µM; in the assay with HT-29, 31.8 µM (inactive). Besides, the GI50 with K562 was 27.9 µM (inactive); in the assay on KM12 it was 37.8 µM (inactive); in the assay with LOX IMVI it was 46.6 µM (inactive); in the assay on NCI-H23, 34.3 µM (inactive); in the assay on NCI-H460, 39.7 µM (inactive); in the assay with NCI-H522, 19.4 µM (inactive). In addition, the GI50 in the assay with SF-268 was 25.2 µM (inactive); with SK-MEL-28 it was 42.3 µM (inactive); in the assay with SK-MEL-5 it was 37.2 µM (inactive); in the assay with SN12C it was 47.3 µM (inactive); in the assay with SNB-19, 24 µM (inactive); with UACC-257, 98.6 µM (inactive). The GI50 in the assay on UO-31 was 64.3 µM (inactive).
